Results from ChEMBL document CHEMBL4004848, “Dregamine and tabernaemontanine derivatives as ABCB1 modulators on resistant cancer cells” (Eur J Med Chem, 2017).

Tests used:
L5178Y = test: Cytotoxicity against mouse L5178Y cells after 24 hrs by MTT assay; format: functional, cell-based
NIH3T3 = test: Cytotoxicity against mouse NIH/3T3 cells after 24 hrs by MTT assay; format: cell-based; conditions: NIH3T3, 24 h
[1] = Selectivity index, ratio of IC50 for mouse L5178Y cells to IC50 for human ABCB1 expressed in L5178Y cells
[2] = molecular target: T1, ATP-dependent translocase ABCB1 (Homo sapiens, UniProt P08183); test: Inhibition of human ABCB1 expressed in mouse L5178Y cells assessed as increase in rhodamine-123 accumulation by measuring forward scatter count of cells at 2 uM pretreated for 10 mins followed by rhodamine-123 addition after 20 mins by flow cytometry (reference value: 2206); format: cell-based
[3] = molecular target: T1, ATP-dependent translocase ABCB1; test: Inhibition of human ABCB1 expressed in mouse L5178Y cells assessed as increase in rhodamine-123 accumulation by measuring forward scatter count of cells at 20 uM pretreated for 10 mins followed by rhodamine-123 addition after 20 mins by flow cytometry (reference value: 2206); format: cell-based
[4] = molecular target: T1, ATP-dependent translocase ABCB1; test: Inhibition of human ABCB1 expressed in mouse L5178Y cells assessed as increase in rhodamine-123 accumulation by measuring side scatter count of cells at 2 uM pretreated for 10 mins followed by rhodamine-123 addition after 20 mins by flow cytometry (reference value: 903); format: cell-based
[5] = molecular target: T1, ATP-dependent translocase ABCB1; test: Inhibition of human ABCB1 expressed in mouse L5178Y cells assessed as increase in rhodamine-123 accumulation by measuring side scatter count of cells at 20 uM pretreated for 10 mins followed by rhodamine-123 addition after 20 mins by flow cytometry (reference value: 903); format: cell-based
[6] = molecular target: T1, ATP-dependent translocase ABCB1; test: Inhibition of human ABCB1 expressed in mouse L5178Y cells assessed as fluorescence activity ratio at 2 uM pretreated for 10 mins followed by rhodamine-123 addition after 20 mins by flow cytometry; format: cell-based
[7] = molecular target: T1, ATP-dependent translocase ABCB1; test: Inhibition of human ABCB1 expressed in mouse L5178Y cells assessed as fluorescence activity ratio at 20 uM pretreated for 10 mins followed by rhodamine-123 addition after 20 mins by flow cytometry; format: cell-based
[8] = molecular target: T1, ATP-dependent translocase ABCB1; test: Inhibition of human ABCB1 expressed in mouse L5178Y cells pretreated for 10 mins followed by rhodamine-123 addition after 20 mins by flow cytometry; format: cell-based
[9] = molecular target: T1, ATP-dependent translocase ABCB1; test: Inhibition of human ABCB1 expressed in mouse L5178Y cells assessed as potentiation of doxorubicin-induced cytotoxicity by measuring combination index at 4:25 doxorubicin to compound ratio after 48 hrs by MTT assay; format: cell-based
[10] = molecular target: T1, ATP-dependent translocase ABCB1; test: Inhibition of human ABCB1 expressed in mouse L5178Y cells assessed as potentiation of doxorubicin-induced cytotoxicity by measuring combination index at 1:5 doxorubicin to compound ratio after 48 hrs by MTT assay; format: cell-based
[11] = Selectivity index, ratio of IC50 for mouse NIH/3T3 cells to IC50 for mouse L5178Y cells; format: functional
[12] = molecular target: T1, ATP-dependent translocase ABCB1; test: Inhibition of human ABCB1 expressed in mouse L5178Y cells assessed as potentiation of doxorubicin-induced cytotoxicity by measuring combination index at 1:25 doxorubicin to compound ratio after 48 hrs by MTT assay; format: cell-based

T1 sequence (P08183 whole entry): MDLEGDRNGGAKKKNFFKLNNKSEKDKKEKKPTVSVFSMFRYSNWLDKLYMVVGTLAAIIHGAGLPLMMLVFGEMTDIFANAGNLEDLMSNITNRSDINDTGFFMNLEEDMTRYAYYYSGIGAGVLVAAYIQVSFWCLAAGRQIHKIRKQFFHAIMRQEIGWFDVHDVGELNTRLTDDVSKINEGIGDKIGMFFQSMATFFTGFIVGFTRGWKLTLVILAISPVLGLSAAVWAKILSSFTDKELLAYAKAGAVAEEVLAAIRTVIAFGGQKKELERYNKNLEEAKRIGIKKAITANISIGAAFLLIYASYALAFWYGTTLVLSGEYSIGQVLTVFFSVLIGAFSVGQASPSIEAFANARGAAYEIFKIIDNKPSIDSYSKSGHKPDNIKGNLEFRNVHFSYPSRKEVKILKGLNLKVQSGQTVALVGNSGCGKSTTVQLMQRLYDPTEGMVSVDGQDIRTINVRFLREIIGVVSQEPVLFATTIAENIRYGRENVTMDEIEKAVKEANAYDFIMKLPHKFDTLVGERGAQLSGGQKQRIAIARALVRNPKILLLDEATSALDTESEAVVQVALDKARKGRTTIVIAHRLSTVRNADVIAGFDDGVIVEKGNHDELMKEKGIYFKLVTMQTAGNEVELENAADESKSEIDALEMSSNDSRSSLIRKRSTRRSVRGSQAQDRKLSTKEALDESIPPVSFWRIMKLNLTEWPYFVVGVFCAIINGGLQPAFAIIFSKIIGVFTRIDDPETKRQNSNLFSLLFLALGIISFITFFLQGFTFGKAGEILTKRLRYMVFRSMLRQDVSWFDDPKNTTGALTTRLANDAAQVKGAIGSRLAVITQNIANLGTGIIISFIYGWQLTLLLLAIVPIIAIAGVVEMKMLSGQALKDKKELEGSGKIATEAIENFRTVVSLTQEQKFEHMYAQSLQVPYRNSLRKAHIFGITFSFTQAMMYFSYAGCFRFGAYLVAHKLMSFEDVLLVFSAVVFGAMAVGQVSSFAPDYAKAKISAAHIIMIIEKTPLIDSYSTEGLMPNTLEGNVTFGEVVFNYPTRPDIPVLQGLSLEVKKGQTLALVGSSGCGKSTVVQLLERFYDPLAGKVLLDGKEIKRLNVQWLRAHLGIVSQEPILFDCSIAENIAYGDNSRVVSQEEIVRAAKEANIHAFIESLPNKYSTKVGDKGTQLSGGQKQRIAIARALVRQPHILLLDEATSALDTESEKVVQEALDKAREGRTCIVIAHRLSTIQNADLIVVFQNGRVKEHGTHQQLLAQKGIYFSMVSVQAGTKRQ

Activity [2] | Activity [3] | Activity [4] | Activity [5] | Ratio [6] | Ratio [7] | inhibition (INH) [8] | SMILES | IC50 (L5178Y) | IC50 (NIH3T3) | Ratio IC50 [1] | CI [9] | CI [10] | Ratio IC50 [11] | CI [12]
2183 | 2158 | 1046 | 1071 | 8.84 | 60.89 | Dose-dependent effect | CC[C@H]1CN(C)[C@H]2Cc3c([nH]c4ccccc34)/C(=N/Nc3ccccc3)C[C@H]1[C@@H]2C(=O)OC | 44.2 µM | > 100 µM | 0.84 | 0.34 |  |  | 
2242 | 2242 | 1120 | 1226 | 2.99 | 51.15 | Dose-dependent effect | CC[C@H]1CN(C)[C@H]2Cc3c([nH]c4ccccc34)C(=S)C[C@H]1[C@@H]2C(=O)OC | 54.5 µM | > 100 µM | 0.7 |  | 0.22 |  | 
2417 | 2449 | 1217 | 1193 | 4.82 | 55.74 | Dose-dependent effect | CC[C@H]1CN(C)[C@H]2Cc3c(n(Cc4ccccc4)c4ccccc34)C(=O)C[C@H]1[C@@H]2C(=O)OC | 33.3 µM | 56.1 µM | 0.87 |  |  | 1.68 | 0.23
2244 | 2301 | 808 | 805 | 1.27 | 30.98 | Dose-dependent effect | CC[C@H]1CN(C)[C@H]2Cc3c([nH]c4ccccc34)/C(=N/NC(=S)NCc3cccnc3)C[C@H]1[C@@H]2C(=O)OC | 20.8 µM | 50.9 µM | 0.46 | 0.6 |  | 2.45 | 
2262 | 2278 | 784 | 746 | 31.88 | 72.88 | Dose-dependent effect | CC[C@H]1CN(C)[C@H]2Cc3c([nH]c4ccccc34)/C(=N/NC(=O)OCc3ccc(OC)cc3)C[C@H]1[C@@H]2C(=O)OC | 34.3 µM | > 100 µM | 0.65 |  |  |  | 0.16
